Entries after “also recorded” stand apart in the source; their conditions may differ.
What was measured:
[1] = tested on: Patients with vitiligo; assay: Clinical efficacy of topical bimatoprost solution for treatment of vitiligo: degree of repigmentation; format: in vivo, human; conditions: for number of patients with Complete repigmentation (100%) / number of patients with Excellent repigmentation (75-99%) / number of patients with Marked repigmentation (50-74%) / number of patients with Moderate repigmentation (25-49%) / number of patients with Nil/mild repigmentation (less than 25%) / Repigmentation of body sites: number with Complete repigmentation (100%) / Repigmentation of body sites: number with Excellent repigmentation (75-99%) / Repigmentation of body sites: number with Marked repigmentation (50-74%) / Repigmentation of body sites: number with Moderate repigmentation (25-49%) / Repigmentation of body sites: number with Nil/mild repigmentation (less than 25%): 0.03% solution topically twice a day, 4 months
Procedure: 20 Patients with vitiligo were treated with topical bimatoprost solution for 4 months to elucidate its efficacy and tolerability in stable vitiligo. The solution contained bimatoprost in a concentration of 0.3 mg/mL (0.03%), benzalkonium chloride in a concentration of 0.05 mg/mL, and water. The solution has a pH of between 6.8 and 7.8, and contains sodium chloride, a dibasic sodium phosphate/citric acid buffer, and sodium hydroxide and/or hydrochloric acid to adjust the pH. The subjects had suffered from vitiligo for a period of between 8 and 80 months. The average period of depigmentation for the patients was 26.7 months. All the patients were examined by an independent observer. The percentage of repigmentation in form of color or size changes and folliculocentric/peripheral repigmentation were observed. […] Specifically, Nil/Mild repigmentation means that the skin has undergone less than 25% repigmentation, i.e., less than 25% of the skin surface has repigmented or, if repigmentation is observed, the skin has regained less than 25% of its natural color. Moderate repigmentation means that the skin has undergone 25-49% repigmentation, as measured by repigmented surface are and/or skin color. Marked repigmentation means that the skin has undergone 50-74% repigmentation, and excellent repigmentation means that the skin has undergone 75-99% repigmentation. Complete response means that repigmented skin lesions from vitiligo are indistinguishable from skin which has never been depigmented. The repigmentation effect of the composition starts rapidly within one to two months after starting the treatment. Topical treatment with bimatoprost is continued for a period of at least two months. If no response is observed to treatment with topical bimatoprost, treatment is stopped at the end of two months. If a mild or moderate response to treatment with topical bimatoprost is observed, therapy is continued for at least 4 months, while observing the patient for any further delayed improvement. In cases where complete or excellent response to topical bimatoprost is observed, treatment is stopped to determine whether relapse, i.e., whether loss of pigmentation is observed upon cessation of bimatoprost therapy. The frequency of application of the topical bimatoprost as an aqueous solution is twice a day.

[2] = tested on: Patients with vitiligo; assay: Follow-up for 6 months after stopping bimatoprost treatment: positive response and relapse; format: in vivo, human; conditions: for Response positive (at least 25% repigmentation), number of patients / Response positive, ratio to total number of patients: 6 months after stopping therapy; for Relapse/loss of pigment, number of patients / Relapse/loss of pigment, percentage of patients with positive response: 6 months following cessation of therapy
Source text: The hypothetical mechanism of repigmentation would be of increased melanogenesis in dermal melanocytes together with increased transfer of melanin granules to the basal melanocytes.

[3] = tested on: Patients with vitiligo; assay: Tolerability / side effects during therapy with topical bimatoprost; format: in vivo, human
Procedure: 20 Patients with vitiligo were treated with topical bimatoprost solution for 4 months to elucidate its efficacy and tolerability in stable vitiligo. The solution contained bimatoprost in a concentration of 0.3 mg/mL (0.03%), benzalkonium chloride in a concentration of 0.05 mg/mL, and water. The solution has a pH of between 6.8 and 7.8, and contains sodium chloride, a dibasic sodium phosphate/citric acid buffer, and sodium hydroxide and/or hydrochloric acid to adjust the pH.
All the patients were examined by an independent observer. The percentage of repigmentation in form of color or size changes and folliculocentric/peripheral repigmentation were observed.

[4] = cited from earlier work
[5] = site Mucosae (mucosal vitiligo or non-mucosal vitiligo progressed to mucosal surfaces)
[6] = vitiliginous lesions on the face or neck
[7] = vitiliginous lesions on the trunk or extremities

Compound: CCNC(=O)CCCC=CCC1C(O)CC(O)C1C=CC(O)CCc1ccccc1 (stereo not drawn) [bimatoprost, 7-[3,5-dihydroxy-2-(3-hydroxy-5-phenyl-pent-1-enyl)-cyclopentyl]-N-ethyl-hept-5-enamide]
- complete clearance of vitiligo lesions (100% repigmentation), percentage of patients ([1]; 20 patients): 30%
- marked to excellent repigmentation (50-99%), percentage of patients ([1]; 20 patients): 55%
- patients in whom repigmentation was observed, percentage ([1]; 20 patients, all types of vitiligo): 70%
- number of patients with Complete repigmentation (100%) ([1]; Focal vitiligo): 1
- number of patients with Excellent repigmentation (75-99%) ([1]; Focal vitiligo): 4
- number of patients with Marked repigmentation (50-74%) ([1]; Focal vitiligo): 1
- number of patients with Moderate repigmentation (25-49%) ([1]; Focal vitiligo): 0
- number of patients with Nil/mild repigmentation (less than 25%) ([1]; Focal vitiligo): 0
- number of patients with Complete repigmentation (100%) ([1]; Mucosal vitiligo): 0
- number of patients with Excellent repigmentation (75-99%) ([1]; Mucosal vitiligo): 0
- number of patients with Marked repigmentation (50-74%) ([1]; Mucosal vitiligo): 0
- number of patients with Moderate repigmentation (25-49%) ([1]; Mucosal vitiligo): 0
- number of patients with Nil/mild repigmentation (less than 25%) ([1]; Mucosal vitiligo): 2
- number of patients with Complete repigmentation (100%) ([1]; Segmental vitiligo): 1
- number of patients with Excellent repigmentation (75-99%) ([1]; Segmental vitiligo): 2
- number of patients with Marked repigmentation (50-74%) ([1]; Segmental vitiligo): 1
- number of patients with Moderate repigmentation (25-49%) ([1]; Segmental vitiligo): 0
- number of patients with Nil/mild repigmentation (less than 25%) ([1]; Segmental vitiligo): 0
- mean onset of pigmentation after initiation of therapy ([1]; all patients): 2 months
- patients treated with at least 50% repigmentation ([1]; all patients treated): 75%
- response of lesions, in words ([1]; lesions on mucosal surfaces or on the extremities): respond poorly
- vitiliginous lesions showing at least 50% repigmentation ([1]; lesions on the face and neck): all vitiliginous lesions
- vitiliginous lesions showing at least 50% repigmentation ([1]; lesions on the trunk): 66%
- repigmentation commencing after initiation of therapy ([1]; new patients (vitiligo for 6 months or less)): four to six
- patients in whom repigmentation was observed, number ([1]; out of 20 patients, all types of vitiligo): 14
- repigmentation, in words ([1]; remaining patients with generalized vitiligo): little or no repigmentation
- patients exhibiting at least 50% repigmentation (at least marked) ([1]; segmental or focal vitiligo): all patients
- Repigmentation of body sites: number with Complete repigmentation (100%) ([1]; site Extremities): 0
- Repigmentation of body sites: number with Excellent repigmentation (75-99%) ([1]; site Extremities): 0
- Repigmentation of body sites: number with Marked repigmentation (50-74%) ([1]; site Extremities): 0
- Repigmentation of body sites: number with Moderate repigmentation (25-49%) ([1]; site Extremities): 2
- Repigmentation of body sites: number with Nil/mild repigmentation (less than 25%) ([1]; site Extremities): 2
- Repigmentation of body sites: number with Complete repigmentation (100%) ([1]; site Head & neck): 4
- Repigmentation of body sites: number with Excellent repigmentation (75-99%) ([1]; site Head & neck): 4
- Repigmentation of body sites: number with Marked repigmentation (50-74%) ([1]; site Head & neck): 2
- Repigmentation of body sites: number with Moderate repigmentation (25-49%) ([1]; site Head & neck): 0
- Repigmentation of body sites: number with Nil/mild repigmentation (less than 25%) ([1]; site Head & neck): 0
- Repigmentation of body sites: number with Complete repigmentation (100%) [1, 5]: 0
- Repigmentation of body sites: number with Excellent repigmentation (75-99%) [1, 5]: 0
- Repigmentation of body sites: number with Marked repigmentation (50-74%) [1, 5]: 0
- Repigmentation of body sites: number with Moderate repigmentation (25-49%) [1, 5]: 2
- Repigmentation of body sites: number with Nil/mild repigmentation (less than 25%) [1, 5]: 2
- Repigmentation of body sites: number with Complete repigmentation (100%) ([1]; site Trunk): 0
- Repigmentation of body sites: number with Excellent repigmentation (75-99%) ([1]; site Trunk): 2
- Repigmentation of body sites: number with Marked repigmentation (50-74%) ([1]; site Trunk): 2
- Repigmentation of body sites: number with Moderate repigmentation (25-49%) ([1]; site Trunk): 0
- Repigmentation of body sites: number with Nil/mild repigmentation (less than 25%) ([1]; site Trunk): 2
- start of the repigmentation effect after starting the treatment ([1]; topical, twice a day): one to two
- number of patients with Complete repigmentation (100%) ([1]; vitiligo Vulgaris): 2
- number of patients with Excellent repigmentation (75-99%) ([1]; vitiligo Vulgaris): 2
- number of patients with Marked repigmentation (50-74%) ([1]; vitiligo Vulgaris): 1
- number of patients with Moderate repigmentation (25-49%) ([1]; vitiligo Vulgaris): 0
- number of patients with Nil/mild repigmentation (less than 25%) ([1]; vitiligo Vulgaris): 3
- repigmentation, in words ([1]; vitiligo restricted to the mucosal surfaces or to the extremities): little or no repigmentation
- patients exhibiting at least 50% repigmentation (at least marked) ([1]; vitiligo vulgaris (generalized vitiligo)): More than 60%
- Response positive (at least 25% repigmentation), number of patients ([2]; Extremities, 4 patients): 2
- Response positive, ratio to total number of patients ([2]; Extremities, 4 patients): 50%
- Relapse/loss of pigment, number of patients ([2]; Extremities): 1
- Relapse/loss of pigment, percentage of patients with positive response ([2]; Extremities): 50%
- Response positive (at least 25% repigmentation), number of patients ([2]; Face and neck, 10 patients): 10
- Response positive, ratio to total number of patients ([2]; Face and neck, 10 patients): 100%
- Relapse/loss of pigment, number of patients ([2]; Face and neck): 1
- Relapse/loss of pigment, percentage of patients with positive response ([2]; Face and neck): 10%
- Response positive (at least 25% repigmentation), number of patients ([2]; Focal, 6 patients): 6
- Response positive, ratio to total number of patients ([2]; Focal, 6 patients): 100%
- Relapse/loss of pigment, number of patients ([2]; Focal): 0
- Response positive (at least 25% repigmentation), number of patients ([2]; Mucosal, 2 patients): 0
- Relapse/loss of pigment, number of patients ([2]; Mucosal): 0
- Response positive (at least 25% repigmentation), number of patients ([2]; Segmental, 4 patients): 4
- Response positive, ratio to total number of patients ([2]; Segmental, 4 patients): 100%
- Relapse/loss of pigment, number of patients ([2]; Segmental): 0
- Response positive (at least 25% repigmentation), number of patients ([2]; Trunk, 6 patients): 4
- Response positive, ratio to total number of patients ([2]; Trunk, 6 patients): 66%
- Relapse/loss of pigment, number of patients ([2]; Trunk): 2
- Relapse/loss of pigment, percentage of patients with positive response ([2]; Trunk): 50%
- Response positive (at least 25% repigmentation), number of patients ([2]; Vulgaris, 8 patients): 4
- Response positive, ratio to total number of patients ([2]; Vulgaris, 8 patients): 50%
- Relapse/loss of pigment, number of patients ([2]; Vulgaris): 1
- Relapse/loss of pigment, percentage of patients with positive response ([2]; Vulgaris): 25%
- patients exhibiting a positive response 6 months after stopping therapy ([2]; focal or segmental vitiligo): 100%
- patients with positive response showing measurable depigmentation after 6 months ([2]; focal or segmental vitiligo): none
- patients exhibiting a positive response 6 months after stopping therapy ([2]; generalized vitiligo (vitiligo vulgaris), eight patients): 50%
- patients exhibiting a positive response 6 months after stopping therapy, number ([2]; generalized vitiligo (vitiligo vulgaris), of eight patients): four
- patients with positive response showing measurable depigmentation after 6 months, number ([2]; generalized vitiligo, of four responders): one
- patients exhibiting a positive response 6 months after stopping therapy [2, 6]: 100%
- patients with positive response showing measurable depigmentation after 6 months [2, 6]: none
- patients exhibiting a positive response 6 months after stopping therapy [2, 7]: 60%
- patients with positive response showing measurable depigmentation after 6 months [2, 7]: 60%
- severe adverse reactions during the trial ([3]; 20 patients, 0.03% solution topically, 4 months): No severe adverse reactions
- most commonly observed side effect ([3]; after application, especially on the lips): transient burning sensation
- incidence of side-effects during therapy ([3]; topical, 20 patients): 20%
- severity of side effects ([3]; topical, 20 patients): mild
- solubility in water [4]: only slightly soluble; also recorded: very low

From patent US20120251613A1, “METHOD FOR TREATING VITILIGO WITH A PROSTAGLANDIN ANALOGUE” (AGILA SPECIALITIES PVT. LTD., priority 2011, published 2012)
